{
  "source": "patent US20170258787A1",
  "about": "“PROPHYLACTIC AND/OR THERAPEUTIC AGENT FOR BEHAVIORAL AND PSYCHOLOGICAL SYMPTOMS ASSOCIATED WITH NEURODEGENERATIVE DISEASE OR IMPULSIVE SYMPTOMS ASSOCIATED WITH MENTAL DISEASE CONTAINING BREXPIPRAZOLE OR SALT THEREOF” (OTSUKA PHARMACEUTICAL CO., LTD., priority 2012, published 2017)",
  "key": {"schizophrenia patients": {"system": "schizophrenia patients", "conditions": "Psychiatric Services 2001, 52:1510-14; cited from earlier work"}, "[1]": {"system": "mouse having a Disc1 L100P point mutation", "conditions": "Neuron 54(3): 387-402, 2007; cited from earlier work"}, "[2]": {"system": "patients with highly severe Alzheimer's disease", "conditions": "12 weeks, Alzheimer's disease patients in nursing home, cited from earlier work"}, "Wistar rat [3]": {"system": "Wistar rat", "conditions": "reported in Alcohol & Alcoholism 2001; 36:2-10; cited from earlier work"}, "APPSL-Tg mouse": {"system": "APPSL-Tg mouse", "assay": "Measurement of mouse circadian rhythm locomotor activity (spontaneous locomotor activity in dark period)", "format": "in vivo", "conditions": "for spontaneous locomotor activity, dark period III (3:00-7:00), Night 1 / spontaneous locomotor activity, dark period III (3:00-7:00), Night 2 / spontaneous locomotor activity, dark period III (3:00-7:00), Night 3: APPSL-Tg mice", "source_text": "1) Measurement of Mouse Circadian Rhythm Locomotor Activity\n(§1) Animal: APPSL-Tg mouse (male) having Swedish and London APP mutations, and non-Tg mouse (male) free of a genetic mutation as a control were generated (Neuroscience Letters 2010; 469:273-277), bred in a breeding room, and used after they became 6-month-old. During the breeding, isolated housing was applied.\n(§2) Measurement method: SUPERMEX manufactured by Muromachi Kikai Co., Ltd. was used for the measurement of circadian rhythm locomotor activity. The mouse was placed in an individual cage, and the spontaneous locomotor activity of the mouse was measured for 3 days (total 62.5 hr) under free-feeding, drinking water conditions. In this apparatus, a passive infrared sensor detects infrared rays emitted from the mouse, and the number of transpositions is counted. The measured values are totaled every 30 min, and automatically totaled using a specialized software CompACT AMS. The test was performed in a soundproof chamber, so that the spontaneous locomotor activity of the mouse would not be influenced. The lighting time in the soundproof chamber was set to 7:00-19:00 as in the breeding room.\nThe amounts of spontaneous locomotor activity of non-Tg mice and APPSL-Tg mice during the dark period of 19:00-7:00 were measured in advance. The mice were grouped in such manner as makes the mean and variance of the groups equal, using the body weight and the dark period spontaneous locomotor activity as indices.\nBrexpiprazole was dissolved in distilled water containing 5% gum arabic, 5% gum arabic distilled water was used for the vehicle group, and they were orally administered to each mouse.\nFor 3 days, brexpiprazole and the vehicle were administered during the period of 17:30-18:30. After the administration, the measurement of the amount of locomotor activity was rapidly started or continued.\nThe statistical test was a two-sided test, and the significance level of the test was set to 5%. As a statistical software, SAS (R9.1, SAS Institute Japan Ltd.) was used.\nDunnett's test was performed based on the repeated measures ANOVA using a mixed model for Night 1-Night 3 at every phase I, II or III of the dark period. Furthermore, Dunnett's test was performed for every dark period and Night."}, "non-Tg mouse": {"system": "non-Tg mouse", "assay": "Measurement of mouse circadian rhythm locomotor activity in control mice", "format": "in vivo", "source_text": "as §1, §2\nBrexpiprazole was administered to APPSL-Tg mouse immediately before the dark period (17:30-18:30) at a dose of 0.01 and 0.03 mg/kg, and the measurement of the spontaneous locomotor activity was started. […]"}, "Tg2576 mouse": {"system": "Tg2576 mouse", "assay": "Resident-Intruder test (aggression, biting)", "format": "in vivo", "conditions": "0.03 mg/kg oral 1 hr before test", "source_text": "Animal: Tg2576 mice (male) having a Swedish APP mutation (K670N, M671L) and non-Tg mice (male) free of the same genetic mutation as a control were purchased from Taconic, and bred and aged until 5- to 6-month-old of age. During the breeding, isolated housing was applied. Measurement method: For the experiment, Tg2576 or non-Tg mouse [Resident] and A/J mouse [Intruder] almost free of aggression were used. Resident formed a sufficient territory by isolated housing for 14 days. […] As the aggressive behavior, biting was noted, and the time necessary for the first biting and total number of biting for 10 min were measured. The measurement was performed within the dark period phase 1 (4 hr) when the amount of locomotor activity of the mouse is the highest. Tg2576 (48 mice) and non-Tg mice (10 mice) were subjected to a Resident-Intruder test in advance, and promotion of the to aggression of the Tg2576 mouse was confirmed. Five Tg2576 mice free of aggression were excluded and 43 mice were used for the test. The mice were grouped into 3 groups in such manner as makes the mean and variance of the groups equal, using the time necessary for the first attack and total number of biting for 10 min, which were obtained in the preliminary test, as indices (total 43 mice). […]"}, "Wistar rat [4]": {"system": "Wistar rat", "assay": "Measurement of alcohol intake by limited access paradigm", "format": "in vivo", "description": "Measurement method: An impulsive behavior of cravings for alcohol was evaluated as follows by reference to the method of Sinclair et al. (Alcohol 1992; 9:441-44 and Alcohol & Alcoholism 2001; 36:2-10). First, Wistar rat (male) was allowed to freely take 10% aqueous ethanol solution and tap water for several weeks under isolated housing. After stabilization of ethanol intake by each animal, a limited access paradigm allowing ethanol intake for only 1 hr per day was started, and the ethanol intake for 1 hr was measured every day. Ethanol intake was calculated from the results of the weight measurement of the water supply bottle filled with 10% aqueous ethanol solution immediately before the start of the limited access paradigm and immediately after completion thereof. An animal which was showing over 0.4 g/kg/hr in terms of 100% ethanol as an average ethanol intake in the limited access paradigm for 4 days immediately before drug evaluation was used. The limited access paradigm test was performed between 9:00 AM-12:00 PM. Brexpiprazole was suspended in distilled water containing 5% gum arabic. […] An average ethanol intake in the limited access paradigm of 4 days immediately before drug evaluation and an average ethanol intake in the limited access paradigm of 4 days after drug administration were analyzed by the 2-tailed paired t-test."}, "Wistar rat [5]": {"system": "Wistar rat", "assay": "Spontaneous locomotor activity under novel environments", "format": "in vivo", "conditions": "0.1 mg/kg, data not indicated"}, "c-fos-GFP mouse": {"system": "c-fos-GFP mouse", "assay": "Measurement of nerve activation pattern (GFP signal) of c-fos-GFP mouse", "format": "in vivo", "conditions": "brain isolated 3 hr later", "description": "Measurement method: c-fos is an indirect marker for neuronal activity, which is expressed on activation of nerve cell. Using a transgenic mouse introduced with a green fluorescent protein (GFP) gene at the downstream of the promoter of c-fos gene (c-fos-GFP mouse), the nerve activation pattern in the brain was measured. Brexpiprazole or vehicle was administered, and the brain was isolated 3 hr later. GFP signals from serial sections of the whole brain were stored in a computer using a two-photon microscope and, after three-dimensional reconstruction, the nerve activation patterns of brexpiprazole (OPC-34712) and vehicle groups were quantitatively analyzed using the brain map information. Brexpiprazole was suspended in distilled water containing 5% gum arabic, and orally administered to c-fos-GFP mouse. Five to seven mice were used. The dose of brexpiprazole was 0.3 and 1 mg/kg. The significance level of the test was set to 5%. In the comparison between groups in each brain region, Tukey's multiple comparison test was conducted."}, "[6]": {"conditions": "0.01 mg/kg oral, n = 6, mean ± standard error"}, "[7]": {"conditions": "0.03 mg/kg oral, n = 5, mean ± standard error"}},
  "data": [
    {"smiles": "O=C(CCCN1CCC(O)(c2ccc(Cl)cc2)CC1)c1ccc(F)cc1", "note": "[haloperidol]", "values": [
      {"measurement": "hostility (positive scale of PANSS)", "setting": "schizophrenia patients", "result": "aggravated hostility"},
      {"measurement": "schizophrenia-like behaviors", "setting": "[1]", "result": "reduced the schizophrenia-like behaviors"}
    ]},
    {"smiles": "COc1cc2c(cc1OC)C(=O)C(CC1CCN(Cc3ccccc3)CC1)C2", "note": "(stereo not drawn) [donepezil]", "values": [
      {"measurement": "NPI (Neuropsychiatric Inventory) score vs placebo", "setting": "[2]; p value 0.95", "result": "no statistically significant difference"},
      {"measurement": "CMAI (Cohen-Mansfield Agitation Inventory) score vs placebo", "setting": "[2]; p value 0.98", "result": "no statistically significant difference"}
    ]},
    {"smiles": "C=C1CC[C@@]2(O)[C@H]3Cc4ccc(O)c5c4[C@@]2(CCN3CC2CC2)[C@H]1O5", "note": "[Nalmefene]", "values": [
      {"measurement": "effect in the limited access paradigm evaluation system", "setting": "Wistar rat [3]", "result": "shows effect in this evaluation system"}
    ]},
    {"smiles": "O=c1ccc2ccc(OCCCCN3CCN(c4cccc5sccc45)CC3)cc2[nH]1", "note": "[brexpiprazole, 7-[4-(4-benzo[b]thiophen-4-yl-piperazin-1-yl)butoxy]-1H-quinolin-2-one]", "values": [
      {"measurement": "spontaneous locomotor activity at Night 3, dark period phase III, vs vehicle (in words)", "setting": "APPSL-Tg mouse; 0.01 mg/kg oral, P<0.01", "result": "significantly suppressed the spontaneous locomotor activity at Night 3"},
      {"measurement": "spontaneous locomotor activity in dark period phase III compared to the vehicle group (Night 1-Night 3)", "setting": "APPSL-Tg mouse; 0.01 mg/kg oral, P<0.05", "result": "significantly suppress the spontaneous locomotor activity"},
      {"measurement": "spontaneous locomotor activity in dark period phase III compared to the vehicle group (Night 1-Night 3)", "setting": "APPSL-Tg mouse; 0.03 mg/kg oral, P=0.050", "result": "significantly suppress the spontaneous locomotor activity"},
      {"measurement": "spontaneous locomotor activity at Night 3, dark period phase III, vs vehicle (in words)", "setting": "APPSL-Tg mouse; 0.03 mg/kg oral, P=0.068", "result": "tended to suppress at Night 3"},
      {"measurement": "spontaneous locomotor activity, dark period III (3:00-7:00), Night 1", "setting": "APPSL-Tg mouse; [6]", "result": 7256},
      {"measurement": "spontaneous locomotor activity, dark period III (3:00-7:00), Night 2", "setting": "APPSL-Tg mouse; [6]", "result": 6466},
      {"measurement": "spontaneous locomotor activity, dark period III (3:00-7:00), Night 3", "setting": "APPSL-Tg mouse; 0.01 mg/kg oral, n = 6, mean ± standard error, P < 0.01 vs vehicle", "result": 4928},
      {"measurement": "spontaneous locomotor activity, dark period III (3:00-7:00), Night 1", "setting": "APPSL-Tg mouse; [7]", "result": 6014},
      {"measurement": "spontaneous locomotor activity, dark period III (3:00-7:00), Night 2", "setting": "APPSL-Tg mouse; [7]", "result": 5443},
      {"measurement": "spontaneous locomotor activity, dark period III (3:00-7:00), Night 3", "setting": "APPSL-Tg mouse; 0.03 mg/kg oral, n = 5, mean ± standard error, P = 0.068 vs vehicle", "result": 6845},
      {"measurement": "spontaneous locomotor activity in dark period", "setting": "non-Tg mouse", "result": "did not decrease the spontaneous locomotor activity"},
      {"measurement": "time necessary for the first biting compared to the vehicle group", "setting": "Tg2576 mouse; P<0.05", "result": "significantly elongated"},
      {"measurement": "number of biting for 10 min compared to the vehicle group", "setting": "Tg2576 mouse; P=0.0709", "result": "tended to show a decreased number of biting"},
      {"measurement": "ethanol intake observed individually", "setting": "Wistar rat [4]; 0.1 mg/kg oral for 4 days, five rats", "result": "all rats showed a decrease in the ethanol intake"},
      {"measurement": "average ethanol intake in the limited access paradigm", "setting": "Wistar rat [4]; 0.1 mg/kg oral once per day for 4 days, 1 hr before, vs 4 days before drug", "result": "statistically significant suppression of ethanol intake"},
      {"measurement": "influence on spontaneous locomotor activity under novel environments", "setting": "Wistar rat [5]", "result": "does not influence spontaneous locomotor activity"},
      {"measurement": "GFP signal in the medial prefrontal cortex (ACA, PL, IL) relative to vehicle", "setting": "c-fos-GFP mouse; 0.3 mg/kg oral", "result": "significantly increased GFP signal"},
      {"measurement": "GFP signal in the medial prefrontal cortex (ACA, PL, IL) relative to vehicle", "setting": "c-fos-GFP mouse; 1 mg/kg oral", "result": "significantly increased GFP signal"}
    ]},
    {"smiles": "Cc1nc2n(c(=O)c1CCN1CCC(c3noc4cc(F)ccc34)CC1)CCCC2", "note": "[risperidone]", "values": [
      {"measurement": "hostility (positive scale of PANSS)", "setting": "schizophrenia patients", "result": "aggravated hostility"}
    ]}
  ]
}
